Results on nine molecules are retold here after US20050288359A1, “Agents and methods for the treatment of disorders associated with oxidative stress” (Monash University, priority 2002, published 2005).

Read-outs that look alike come from different tables or passages of the source.

The nature of data set [1]: In vitro antioxidant assay: oxidation of linoleic acid to conjugated diene hydroperoxide, free radical initiator AAPH, absorbance at 234 nm. It counts as biochemical. The source says: Lipid oxidation can usually be prevented by the addition free radical scavengers (FRS), more commonly known as antioxidants. Their role is to turn reactive and harmful molecules such as hydroxy, nitroxy and superoxide radicals into innocuous molecules that can be passed or converted by biological processes. One of the main pathways that lead to apoptosis in cells is oxidative stress. This event is a product of the action of these harmful radicals on the cell walls and membranes, leading to their breakdown. In terms of the antioxidant evaluation (Scheme 1), […] was utilised as a free radical initiator […], and the efficiency was calculated based on the formation of a conjugated diene hydroperoxide generated through the oxidation of linoleic acid in the presence and absence of a free radical scavenger. The conjugated diene hydroperoxide mimics the products of cellular oxidative stress imposed on the cell wall. The antioxidant can act at any stage of the reaction to stop or slow down the formation of the conjugated diene by reacting with the appropriate radicals (Scheme 1).
A convenient test to determine the efficiency of antioxidants in aqueous systems was setup using 2,2′-azobis(2-amidinopropane).2HCl ([…]) as a free radical initiator (Scheme 1). The production of conjugated diene hydroperoxide (LOOH) generated through the oxidation of linoleic acid in an aqueous system at 37° C. is monitored at 234 nm for 15 minutes using a Cary 100 UV-Vis spectrophotometer.
The efficiency is determined according to a standard, that is the generation of free radicals in the absence of an antioxidant. Efficiency is then calculated using the following equation: Efficiency (%)=1−[K2/K1]×100 Where: • K1=rate of oxidation of standard (no antioxidant)=[difference in absorbance]/[time (sec)] • K2=rate of oxidation with antioxidant=[difference in absorbance]/[time (sec)]
Prior to testing the efficiency of the compounds of the present invention, a number of well known antioxidants including vitamin E and ascorbic acid were tested. Each of the tests for vitamin E and ascorbic acid gave similar results to those presented in the literature. A number of other variables were tested including the amounts of antioxidant, substrate (linoleic acid) and initiator (AAPH). The optimal volumes are shown below: • 2.78 ml 0.05M phosphate buffer pH 7.4 • 30 ul of linoleic acid dispersion stock • 10 ul of 0.01M antioxidant stock
150 ul of 40 mM […] stock
When testing the efficiency of compounds of the present invention in the presence and absence of Ca^2+, HEPES buffered saline was used instead of the standard phosphate buffer and CaCl2 was used as a source of calcium ions.

Data set [2] deals with neonatal mouse fibroblasts. Description: Oxidant stress-induced cell death of fibroblasts (LDH release). The format is cell-based. As for the experimental part:
FIG. 2 is a plot of the oxidant stress-induced cell death of neonatal mouse fibroblasts exposed to paraquat. Cells (5×10^3 per well) were treated overnight with freshly prepared paraquat or peroxynitrite. Culture medium from wells was assayed for lactate dehydrogenase (LDH) release as a marker of cytotoxicity. […] Values represent means±SEMs of triplicate wells, *P<0.05 difference from untreated cells. The x-axis represents concentration of Paraquat and Peroxynitrite in μM.
(§1) We developed two cell culture systems that can be used to screen drugs that prevent cell death induced by oxidant stress (FIG. 3, Model A) and excitotoxicity (FIG. 4, Model B). In model A, we utilize cultured fibroblasts that are exposed to paraquat that induces significant death at 10 μM (see FIG. 3). In model B we utilize the NSC-34 motor neuron cell line that can be induced to degenerate via the glutamate excitotixic pathway using the specific agonist fluorowillardine or FW (see FIG. 4).
Background: LDH leaks from cells whose membrane has failed.

For data set [3], the system named is NSC-34D motor neuron cell line. Description: Excitotoxic cell death of motor neuron cell line (MTT reduction). The format is cell-based. The note with it: exposed for 72 hours. As for the experimental part:
FIG. 3 is a plot showing the effect of (S)-5-fluorowillardiine (“(S)-5-FW”) on survival (MTT reduction) of NSC-34D motor neuron cell line. These cells were cultured at 1×10^4 cells/well for 48 hours in DMEM/F-12 with 1% (v/v) FCS and then exposed to various concentrations of (S)-5-FW for 72 hours. MTT solution (0.5 mg/ml) was added to cultures for 2 hours, cells were solubilised and MTT reduction quantified as a percentage of […]. Statistically significant differences from control (zero (S)-5-FW) were defined using one-way ANOVA (*P<0.05, ***P<0.001).
as §1
(In general: Tetrazolium assays rely on reduction of a dye to a coloured formazan, in cell work by metabolically active cells.)

Setting [4] is: 0.05M phosphate buffer pH 7.4, 37° C., 15 minutes, antioxidant stock 0.01 M, final concentration 33.3 μM.
[5] abbreviates: HBS with calcium (67%), CaCl2 as calcium source, solvent methanol or DMSO (33%).
Where [6] appears, read: HBS without calcium (67%), solvent methanol or DMSO (33%).

For `COc1ccccc1N(CC(=O)O)CC(=O)O` [(6), N,N-bis(acetic acid)o-anisidine], the results for the Efficiency in data set [1] (setting [4]), in data set [1] (setting [5]) and in data set [1] (setting [6]) were 43%, 35% and 46%, respectively. Regarding Vitamin E, the Efficiency amounted to 93% in data set [1] (setting [4]), 94% in data set [1] (setting [5]) and 90% in data set [1] (setting [6]).

For the molecule `CCOC(=O)CN(CC(=O)OCC)c1ccccc1OC` [(5), N,N-bis(ethoxycarbonylmethyl)o-anisidine], the Efficiency in data set [1] (setting [4]) was 47%. `C[n+]1ccc(-c2cc[n+](C)cc2)cc1` [paraquat]: in data set [2] (5×10^3 cells per well, treated overnight, high doses), the “Cell death (LDH release as marker of cytotoxicity)” value was “induced significant cell death”. Also, in data set [2] (model A, oxidant stress), the “Concentration that induces significant death of cultured fibroblasts” value came to 10 µM.

Turning to `O=C(O)CN(CC(=O)O)c1ccccc1OCCOc1ccccc1N(CC(=O)O)CC(=O)O` [compound (4), bis(o-aminophenoxy)ethane-N,N,N′,N′-tetraacetic acid], the Efficiency is recorded as 83% in data set [1] (setting [4]), 93% in data set [1] (setting [5]) and 93% in data set [1] (setting [6]). As to “Bis[2-(bis-ethoxycarbonylmethyl)aminophenoxy]ethane [compound (3)]”, the Efficiency in data set [1] (setting [4]) is reported as 20%. Same read-out and setting: the result for `O=C1O[C@H]([C@@H](O)CO)C(O)=C1O` [Ascorbic Acid] reads 74%.

Take `O=NOO` [peroxynitrite]: in data set [2], the “Cell death (LDH release as marker of cytotoxicity)” value is given as “not peroxynitrite induced significant cell death”.

Turning to `N[C@@H](Cn1cc(F)c(=O)[nH]c1=O)C(=O)O` [(S)-5-FW, (S)-5-fluorowillardiine], the “Concentration of maximal cell death effect” value in data set [3] was determined as 1000 µM. Also, the “Effect on survival (MTT reduction)” value in data set [3] (various concentrations) is “significant cell death in concentration dependent manner”.
